Data: US8916604B2, “Compositions and methods for epigenetic modification of nucleic acid sequences” (Rutgers, The State University of New Jersey, priority 2011, dated 2014)
Like-named read-outs stand apart in the source and are kept apart here.

Assays:
Nrf2 = assay: Western blot of TRAMP dorso-lateral prostate tissues; format: in vivo, mouse; details: D-G1 and D-G2; undetectable in control
Procedure: (§1) The TRAMP C1 cells or dorso-lateral prostate tissues collected from treated and control groups were pooled and homogenized with RIPA buffer (Cell Signaling Technology, Danvers, Mass., U.S.A.) and 10 μg/ml protease inhibitor cocktail (EMD Chemicals, Philadelphia, Pa., U.S.A.). Protein (20 μg) was loaded onto 4-15% SDS-PAGE (Bio-Rad Laboratories, Hercules, Calif., U.S.A.). After separation by SDS-PAGE, the protein was transferred onto nitrocellulose membrane (Millipore Corp., Billerica, Mass., U.S.A.), and then was blocked in 5% bovine serum albumin (BSA) (Fisher Scientific, Fair Law, J. U.S.A.) in tris buffer saline tween-20 (TBST) solution for 1 h. […] After washing min 4 times with TBST solution, the immunoreactive bands were determined by adding SuperSignal West Femto mix (1:1 mix of stable peroxide buffer and luminol/enhancer solution (Thermo Scientific, Rockford, Ill., U.S.A.) to detect immunoreactive bands. The bands were visualized and quantified by BioRad ChemiDoc XRS system (Hercules, Calif., U.S.A.). The primary antibodies used were β-actin, Nrf2, NQO1 (Santa Cruz Biotechnology, Santa Cruz, Calif., U.S.A.), HDAC1, HDAC2, HDAC3, HDAC4 (Cell Signaling Technology Inc., Danvers Mass., U.S.A.), HDAC8 (Proteintech Group Inc., Chicago, Ill., U.S.A.) and DNMT1, DNMT3a, DNMT3b (Imgenex, San Diego, Calif., U.S.A.). […]

NQO1 = assay: as above; format: in vivo, mouse; details: D-G1 and D-G2; undetectable in control
Procedure: as §1

TRAMP mice = assay: DIM-supplemented diet, prostate tumorigenesis in TRAMP males; format: in vivo, mouse; details: for Incidence of palpable tumor: sacrificed at 24 weeks, control 6/19; for Incidence of lymph nodes metastasis: control 5/19; for histological incidence of HG-PIN: control 54%
Procedure: Female hemizygous C57BL/TGN TRAMP mice, line PB Tag 8247NG, and male C57BL/6 mice were purchased from The Jackson Laboratory (Bar Harbor, Me., U.S.A.). The animals were bred on the same genetic background C57BL/6 and maintained in the Laboratory Animal Service facility at Rutgers University. Housing and care of the animals was performed in accordance with the guidelines established by the University's Animal Research Committee consistent with the NIH Guidelines for the Care and Use of Laboratory Animals, Transgenic males for the studies were obtained as [TRAMP×C57BL/6] F1 or [TRAMP×C57BL/6] […] Throughout the experiment the animals were housed in a temperature-control led room (68-72° F.) with a 12 h light dark cycle, at a relative humidity of 45% to 55%.
DIM was obtained from Sigma-Aldrich (St. Louis, Mo., U.S.A.). MN-76A diets containing 1% DIM were prepared by Research Diets Inc. (New Brunswick, N.J., U.S.A.) and stored at −20° C. The dose was chosen based in part on studies reported previously Anderton et al., Drug Metab Dispos. 2004; 32: 632-8; and Xue et al., J Nutr Biochem. 2008; 19: 336-44). In our present study, 1% DIM was well-tolerated with these TRAMP mice. The control TRAMP males (n=19) received A1N-76A diets throughout the experiment while the treated TRAMP males received 1% DIM diet starting from eight weeks of age (n=9) as Group 1 (D-G1) and Group 2 (D-G2) starting from twelve weeks of age (n=8) (FIG. 12A). Fresh diets were added to the cages twice weekly.
TRAMP males were weighed weekly and the overall health of the animals was monitored on a regular basis. All mice were sacrificed at the age of 24 weeks by carbon dioxide euthanasia and the genitourinary apparatus (GU) consisting of the seminal vesicles, prostate, and bladder were isolated for further analyses (FIG. 12B).
The dorso-lateral prostate (n=5) was excised and fixed in 10% formalin for 24 b and then transferred to 70% ethanol for 24 h. After dehydration processing, and embedding with paraffin, tissue sections ([…]) were cut from paraffin embedded prostate tissue and mounted on slides. The sections were stained with Hematoxylin and Eosin (H&E) to examine any neoplastic changes. Sections were evaluated by a histopathologist in a blinded fashion to classify prostatic intra-epithelial neoplasia (PIN) lesion, as we have reported previously (8, 12, 13, 30), Lesions were classified as PIN I, PIN II, PIN III, and PIN IV (Park et al., Am J Pathol. 2002; 161: 727-35). For ease of classification, PIN I and PIN II were combined as low grade PIN (LG-PIN) while PIN III and PIN IV were combined as high grade PIN (HG-PIN) as we have performed previously (8, 12, 30, 31).

HepG2-C8 cells = assay: MTS cell viability assay; format: cell-based, human; details: Homo sapiens
Procedure: The stably transfected single clone HepG2-ARE-C8 (HepG2-C8) cell line has been established previously in our laboratory using the […]-luciferase reporter gene. The cells were maintained in Dulbecco's modified Eagle medium supplemented with 10% fetal bovine serum (FBS), 1.17 g/l sodium bicarbonate, and 100 unit/ml penicillin, 100 μg/ml streptomycin at 37° C. in a humidified incubator with 5% CO2. […] MTS] (Promega, Madison, Wis.). […] The cells were then treated with MTS for 1 h at 37° C. Absorbance of the formazan product was read at 490 nm with a μQuant Biomolecular Spectrophotometer from Bio-Tek Instruments Inc. (Winooski, Vt.). Independent control studies were conducted using 1% and 10% FBS medium.

[1] = D-G2: 1% DIM diet from 12 weeks of age, p<0.05

c1ccc2c(Cc3c[nH]c4ccccc34)c[nH]c2c1 [DIM, 3,3′-diindolylmethane]
Nrf2 protein expression (Nrf2): induced
NQO1 protein expression (NQO1): induced
Incidence of palpable tumor (TRAMP mice; D-G1: 1% DIM diet from 8 weeks of age): 1/9^a,
Incidence of lymph nodes metastasis (TRAMP mice; D-G1: 1% DIM diet from 8 weeks of age, p<0.05): 0/9^b, #
histological incidence of carcinoma (TRAMP mice; D-G1, control 46%): 20%
histological incidence of HG-PIN (TRAMP mice; D-G1): 20%
wet genitourinary apparatus (GU) weight (TRAMP mice; D-G1 and D-G2 vs non-treated control, p<0.05): statistically significant decrease
histological incidence of LG-PIN (TRAMP mice; D-G2): 20%
histological incidence of carcinoma (TRAMP mice; D-G2): no carcinoma
Incidence of palpable tumor (TRAMP mice; [1]): 0/8^a, *
Incidence of lymph nodes metastasis (TRAMP mice; [1]): 0/8^b, #
histological incidence of HG-PIN (TRAMP mice; D-G2): 80%
incidence of lymph node metastasis (TRAMP mice; DIM-treated mice overall vs 26.3% in control): 0%
percentage of palpable tumor (TRAMP mice; DIM-treated mice overall vs 31.6% in control): 5.8%
IC50 (HepG2-C8 cells; HepG2C8, 1% FBS medium, read-out: cell viability inhibitory concentrations (IC50)): 51 µM
IC50 (HepG2-C8 cells; HepG2C8, 10% FBS medium (data not shown), read-out: cell viability IC50): ~85 µM
